Read-outs that look alike come from different tables or passages of the source.
What was measured:
Assay in all cases: microbe, parasite or virus in culture
Type in all cases: cell-based, Hepatitis C virus (HCV)
Details in all cases: Replicon Assay A
HCV replicon 2B = tested on: HCV replicon 2B
Procedure, shortened: (§1)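 Replicon cells incubated with compound for 3 days in medium with 5% FBS and 0.5% DMSO final. Replicon RNA measured in lysates by multiplex real-time RT-PCR (Neo set) against cyclophilin control, quantified from standard curves of Ct versus log ng replicon total RNA.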

HCV replicon 1AY93H = tested on: HCV replicon 1AY93H
Procedure, shortened: as §1

HCV replicon 1A = tested on: HCV replicon 1A
Procedure, shortened: as §1

[1] = read-out: 2B IC50, HCV replicon 2B
[2] = read-out: 1A Y93H IC50, HCV replicon 1A Y93H
[3] = Hepatitis C virus, read-out: 2B IC50 (nM), replicon 2B
[4] = Hepatitis C virus, read-out: 1A Y93H IC50 (nM), replicon 1AY93H
[5] = read-out: 1A Y93H IC50, replicon 1AY93H

Row | SMILES | IC50 (HCV replicon 2B; read-out: 2B IC50, replicon 2B) | IC50 (HCV replicon 1AY93H; [5]) | IC50 (HCV replicon 1A; replicon 1A) | other results
1 | COC(=O)N[C@H](C(=O)N1CCC[C@H]1c1ncc(-c2ccc3c(c2)OC(c2cc4ccccc4s2)n2c-3cc3cc(-c4cnc([C@@H]5C[C@H]6C[C@H]6N5C(=O)[C@@H](NC(=O)OC)C(C)C)[nH]4)ccc32)[nH]1)C(C)C (single isomer, unassigned) [Compound 608] |  |  |  | IC50 (HCV replicon 2B; [1]): 0.031 nM; IC50 (HCV replicon 1AY93H; [2]): 0.0529 nM; IC50 (HCV replicon 1A; HCV replicon 1A): 0.0035 nM
2 | COC(=O)NC(C(=O)N1[C@@H]2C[C@@H]2C[C@H]1c1ncc(-c2ccc3c(c2)c(F)c2n3C(c3ccc(C4CC4)s3)Oc3cc(-c4cnc([C@@H]5CCCN5C(=O)[C@@H](NC(=O)OC)C(C)C)[nH]4)ccc3-2)[nH]1)C1C[C@@H](C)O[C@@H](C)C1 (single isomer, unassigned) [Compound 643] |  |  |  | IC50 (HCV replicon 2B; [1]): 0.323 nM; IC50 (HCV replicon 1AY93H; [2]): 0.179 nM; IC50 (HCV replicon 1A; HCV replicon 1A): 0.0012 nM
3 | COC(=O)NC(C(=O)N1CCC[C@H]1c1ncc(-c2ccc3c(c2)cc2n3C(c3cc4c(s3)CCC4)Oc3cc(-c4cnc([C@@H]5CCCN5C(=O)[C@@H](NC(=O)OC)C(C)C)[nH]4)cc(F)c3-2)[nH]1)C1CCOC(C)(C)C1 (single isomer, unassigned) [Compound 405] |  |  |  | IC50 (HCV replicon 2B; [3]): 0.0042 nM; IC50 (HCV replicon 1AY93H; [4]): 0.0133 nM; IC50 (HCV replicon 1A; Hepatitis C virus, replicon 1A): 0.0023 nM
4 | COC(=O)NC(C(=O)N1CCC[C@H]1c1ncc(-c2ccc3c(c2)cc2n3C(c3ccc(C(C)C)s3)Oc3cc(-c4cnc([C@@H]5CCCN5C(=O)[C@@H](NC(=O)OC)C(C)C)[nH]4)cc(F)c3-2)[nH]1)C1CCOC(C)(C)C1 (single isomer, unassigned) [Compound 239] | 9.48 nM | 6.6 nM | 0.0982 nM | 
5 | COC(=O)N[C@H](C(=O)N1CCC[C@H]1c1ncc(-c2cc(F)c3c(c2)OC(c2ccc(OC)s2)n2c-3cc3cc(-c4cnc([C@@H]5CCCN5C(=O)[C@@H](NC(=O)OC)C(C)C)[nH]4)ccc32)[nH]1)C(C)C (single isomer, unassigned) [Compound 19] | 1.88 nM | 0.5 nM |  | IC50 (HCV replicon 1A; Hepatitis C virus, replicon 1A): 0.0016 nM
6 | [2H]C(C)(C)C(NC(=O)OC)C(=O)N1CCC[C@H]1c1ncc(-c2cc(F)c3c(c2)OC(c2ccc(C4CC4)s2)n2c-3cc3cc(-c4cnc([C@@H]5CCCN5C(=O)[C@@H](NC(=O)OC)C(C)C)[nH]4)ccc32)[nH]1 (single isomer, unassigned) [Compound 31] | 0.083 nM | 0.02 nM | 0.002 nM | 
7 | COC(=O)N[C@H](C(=O)N1CCC[C@H]1c1ncc(-c2cc(F)c3c(c2)OC(c2sccc2C2CC2)n2c-3cc3cc(-c4cnc([C@@H]5CCCN5C(=O)[C@@H](NC(=O)OC)C(C)C)[nH]4)ccc32)[nH]1)C(C)C (single isomer, unassigned) [Compound 25] |  |  |  | IC50 (HCV replicon 2B; [3]): 15.1 nM; IC50 (HCV replicon 1AY93H; [4]): 14.4 nM; IC50 (HCV replicon 1A; Hepatitis C virus, replicon 1A): 0.0043 nM
8 | COC(=O)NC(C(=O)N1CCC[C@H]1c1ncc(-c2ccc3c(c2)cc2n3C(c3ccc(C4CC4)s3)Oc3cc(-c4cnc([C@@H]5CCCN5C(=O)[C@@H](NC(=O)OC)C(C)C)[nH]4)cc(F)c3-2)[nH]1)C1C2COCC21 (single isomer, unassigned) [Compound 338] | 1.52 nM | 0.357 nM |  | IC50 (HCV replicon 1A; Hepatitis C virus, replicon 1A): 0.0024 nM
9 | COC(=O)N[C@H](C(=O)N1CCC[C@H]1c1ncc(-c2cc(F)c3c(c2)OC(c2ccc(C#CC4CC4)s2)n2c-3cc3cc(-c4cnc([C@@H]5CCCN5C(=O)[C@@H](NC(=O)OC)C(C)C)[nH]4)ccc32)[nH]1)C(C)C (single isomer, unassigned) [Compound 85] | 1 nM | 0.41 nM |  | IC50 (HCV replicon 1A; Hepatitis C virus, replicon 1A): 0.0011 nM
10 | COC(=O)NC(C(=O)N1CCC[C@H]1c1ncc(-c2ccc3c(c2)cc2n3C(c3ccc(C4CC4)s3)Oc3cc(-c4cnc([C@@H]5CCCN5C(=O)[C@@H](NC(=O)OC)C(C)C)[nH]4)cc(F)c3-2)[nH]1)C1CCO[C@@H](C)C1 (single isomer, unassigned) [Compound 354] | 0.602 nM | 0.38 nM |  | IC50 (HCV replicon 1A; Hepatitis C virus, replicon 1A): 0.002 nM
11 | COC(=O)N[C@H](C(=O)N1CCC[C@H]1c1ncc(-c2ccc3c(c2)OC(c2cc(C)c(C)s2)n2c-3cc3cc(-c4cnc([C@@H]5C[C@H]6C[C@H]6N5C(=O)[C@@H](NC(=O)OC)C(C)C)[nH]4)ccc32)[nH]1)C(C)C (single isomer, unassigned) [Compound 503] |  |  |  | IC50 (HCV replicon 2B; [1]): 7.51 nM; IC50 (HCV replicon 1AY93H; [2]): 1.76 nM; IC50 (HCV replicon 1A; HCV replicon 1A): 0.0676 nM
12 | COC(=O)N[C@H](C(=O)N1CCC[C@H]1c1ncc(-c2cc(C)c3c(c2)OC(c2ccc(C4CC4)s2)n2c-3cc3cc(-c4cnc([C@@H]5CCCN5C(=O)[C@@H](NC(=O)OC)C(C)C)[nH]4)ccc32)[nH]1)C(C)C (single isomer, unassigned) [Compound 752] |  |  |  | IC50 (HCV replicon 2B; [1]): 0.6 nM; IC50 (HCV replicon 1AY93H; [2]): 2.7 nM; IC50 (HCV replicon 1A; HCV replicon 1A): 0.0028 nM
13 | CCc1ccc(C2Oc3cc(-c4cnc([C@@H]5CCCN5C(=O)[C@@H](NC(=O)OC)C(C)C)[nH]4)cc(F)c3-c3cc4cc(-c5cnc([C@@H]6CCCN6C(=O)C(NC(=O)OC)C6CCOC(C)(C)C6)[nH]5)ccc4n32)s1 (single isomer, unassigned) [Compound 149] | 24.8 nM | 25.9 nM | 0.129 nM | 
14 | COC(=O)N[C@H](C(=O)N1C[C@H](F)C[C@H]1c1nc(-c2ccc3c(c2)OC(c2ccc(C)s2)n2c-3cc3cc(-c4c[nH]c([C@@H]5C[C@H]6C[C@H]6N5C(=O)[C@@H](NC(=O)OC)C5CCOCC5)n4)ccc32)c[nH]1)C1CCOCC1 (single isomer, unassigned) [Compound 731] |  |  |  | IC50 (HCV replicon 2B; [1]): 0.021 nM; IC50 (HCV replicon 1AY93H; [2]): 0.026 nM; IC50 (HCV replicon 1A; HCV replicon 1A): 0.024 nM
15 | COC(=O)NC(C(=O)N1CCC[C@H]1c1ncc(-c2ccc3c(c2)cc2n3C(c3ccc(C4CC4)s3)Oc3cc(-c4cnc([C@@H]5CCCN5C(=O)[C@@H](NC(=O)OC)C(C)C)[nH]4)cc(F)c3-2)[nH]1)C1CN(C(=O)OC)C1 (single isomer, unassigned) [Compound 227] | 0.17 nM | 0.15 nM | 0.0019 nM | 
16 | COCC(C)(C)c1ccc(C2Oc3cc(-c4cnc([C@@H]5CCCN5C(=O)[C@@H](NC(=O)OC)C(C)C)[nH]4)cc(F)c3-c3cc4cc(-c5cnc([C@@H]6CCCN6C(=O)[C@@H](NC(=O)OC)C(C)C)[nH]5)ccc4n32)s1 (single isomer, unassigned) [Compound 400] | 1.69 nM | 0.151 nM | 0.0017 nM | 
17 | COC(=O)NC(C(=O)N1CCC[C@H]1c1ncc(-c2ccc3c(c2)cc2n3C(c3ccc(C(C)C)s3)Oc3cc(-c4cnc([C@@H]5CCCN5C(=O)[C@@H](NC(=O)OC)C(C)C)[nH]4)cc(F)c3-2)[nH]1)C1CCOC(C)(C)C1 (single isomer, unassigned) [Compound 243] | 6.81 nM | 0.87 nM | 0.0015 nM | 
18 | CCc1ccc(C2Oc3cc(-c4cnc([C@@H]5CCCN5C(=O)[C@@H](NC(=O)OC)C(C)C)[nH]4)cc(F)c3-c3cc4cc(-c5cnc([C@@H]6CCCN6C(=O)C(NC(=O)OC)C6C[C@@H](C)O[C@@H](C)C6)[nH]5)ccc4n32)s1 (single isomer, unassigned) [Compound 145] | 1.62 nM | 5.22 nM | 0.0022 nM | 
19 | CCc1ccc(C2Oc3cc(-c4cnc([C@@H]5CCCN5C(=O)[C@@H](NC(=O)OC)C(C)C)[nH]4)cc(F)c3-c3cc4cc(-c5cnc([C@@H]6CCCN6C(=O)C(NC(=O)OC)C6CCOC(C)(C)C6)[nH]5)ccc4n32)s1 (single isomer, unassigned) [Compound 147] | 0.62 nM | 0.43 nM | 0.0025 nM | 
20 | COC(=O)N[C@H](C(=O)N1CCC[C@H]1c1ncc(-c2cc(F)c3c(c2)OC(c2cc4c(s2)CCC4)n2c-3cc3cc(-c4cnc([C@@H]5CCCN5C(=O)[C@@H](NC(=O)OC)C5CCOCC5)[nH]4)ccc32)[nH]1)C(C)C (single isomer, unassigned) [Compound 621] |  |  |  | IC50 (HCV replicon 2B; [1]): 0.835 nM; IC50 (HCV replicon 1AY93H; [2]): 0.108 nM; IC50 (HCV replicon 1A; HCV replicon 1A): 0.0031 nM
21 | COC(=O)NC(C(=O)N1CCC[C@H]1c1ncc(-c2cc(F)c3c(c2)OC(c2ccc(C4CC4)s2)n2c-3cc3cc(-c4cnc([C@@H]5CCCN5C(=O)[C@@H](NC(=O)OC)C(C)C)[nH]4)ccc32)[nH]1)C1CCOC(C)(C)C1 (single isomer, unassigned) [Compound 211] | 0.42 nM | 0.22 nM | 0.0026 nM | 
22 | CCc1ccc(C2Oc3cc(-c4cnc([C@@H]5CCCN5C(=O)[C@@H](NC(=O)OC)C(C)C)[nH]4)cc(F)c3-c3cc4cc(-c5cnc([C@@H]6C[C@@H](F)CN6C(=O)C(NC(=O)OC)C6CCOC(C)(C)C6)[nH]5)ccc4n32)s1 (single isomer, unassigned) [Compound 256] |  | 16.9 nM | 0.117 nM | 
23 | COC(=O)NC(C(=O)N1CCC[C@H]1c1ncc(-c2cc(F)c3c(c2)OC(c2ccc(C4CC4)s2)n2c-3cc3cc(-c4cnc([C@@H]5CCCN5C(=O)[C@@H](NC(=O)OC)C(C)C)[nH]4)ccc32)[nH]1)C1C[C@@H](C)O[C@@H](C)C1 (single isomer, unassigned) [Compound 187] |  | 14.8 nM | 0.0664 nM | 
24 | COC(=O)NC(C(=O)N1CCC[C@H]1c1ncc(-c2ccc3c(c2)cc2n3C(c3ccc(C4CC4)s3)Oc3cc(-c4cnc([C@@H]5CCCN5C(=O)[C@@H](NC(=O)OC)C(C)C)[nH]4)cc(F)c3-2)[nH]1)C1CCOC(C)(C)C1 (single isomer, unassigned) [Compound 224] |  | 8.88 nM | 0.048 nM | 
25 | COC(=O)N[C@H](C(=O)N1CCC[C@H]1c1ncc(-c2cc(F)c3c(c2)OC(c2ccc(CC(C)(C)OC)s2)n2c-3cc3cc(-c4cnc([C@@H]5CCCN5C(=O)[C@@H](NC(=O)OC)C(C)C)[nH]4)ccc32)[nH]1)C(C)C (single isomer, unassigned) [Compound 843] |  |  |  | IC50 (HCV replicon 1AY93H; HCV replicon 1A Y93H, read-out: 1A Y93H IC50): 0.329 nM; IC50 (HCV replicon 1A; HCV replicon 1A): 0.0022 nM

Source: US20160257697A1, “THIOPHENE-SUBSTITUTED TETRACYCLIC COMPOUNDS AND METHODS OFUSE THEREOF FOR THE TREATMENT OF VIRAL DISEASES” (priority 2013, published 2016)
